Key:
Mus musculus [1] = test: ED50 value determined as oxotremorine antagonism by measuring lacrimation in mice (in vivo); type: functional
[2] = target: Muscarinic acetylcholine receptor; test: Binding affinity to muscarinic acetylcholine receptor was determined in presence of [3H]OXO-M radioligand (in vitro); type: protein assay
[3] = target: Muscarinic acetylcholine receptor; test: Binding affinity to muscarinic acetylcholine receptor was determined in presence of [3H]QNB radioligand (in vitro); type: protein assay
Mus musculus [4] = test: ED50 value determined as oxotremorine antagonism by measuring tremors in mice (in vivo); type: functional
Mus musculus [5] = test: ED50 value as cholinergic agonist by measuring salivation in mice (in vivo); type: functional
Mus musculus [6] = test: ED50 value as cholinergic agonism by measuring lacrimation in mice (in vivo); type: functional
Mus musculus [7] = test: ED50 value as cholinergic agonist by measuring tremors in mice (in vivo); type: functional
Mus musculus [8] = test: ED50 value determined as oxotremorine antagonism by measuring salivation in mice (in vivo); type: functional
[9] = target: Muscarinic acetylcholine receptor (Rattus norvegicus) (UniProt P08482+P08483+P08485+P08911+P10980); test: Ratio of Ki value for QNB to that of Ki value for Oxo-M.; type: protein assay

| Structure (SMILES) | Ki [2] [nM] | Ki [3] [nM] | Ki ratio [9] | ED50 (Mus musculus [1]) [mg/kg] | ED50 (Mus musculus [4]) [mg/kg] | ED50 (Mus musculus [5]) [mg/kg] | ED50 (Mus musculus [6]) [mg/kg] | ED50 (Mus musculus [7]) [mg/kg] | ED50 (Mus musculus [8]) [mg/kg] |
| --- | --- | --- | --- | --- | --- | --- | --- | --- | --- |
| COC(=O)N(C)C(C)C#CCn1cncc1C (stereo unspecified) | 9.5 | 97 | 10 | 3.7 | > 100 | > 100 | > 100 | 97 | 6.6 |
| CC(=O)N(C)CC#CCN1CCCC1 | 0.92 | 260 | 283 | > 10 | > 10 | 0.55 | 0.55 | 0.3 | > 10 |
| COC(=O)N(C)CC#CCN1CCCC1 | 2.6 | 550 | 211 | > 10 | > 10 | 5.5 | 3 | 1.4 | > 10 |
| CCOC(=O)N(C)CC#CCn1cncc1C | 156 | 568 | 3.6 | 66 | 30 | > 100 | > 100 | 97 | 66 |
| COC(=O)N(C)C(C)C#CCn1ccnc1 (stereo unspecified) | 13 | 1355 | 104 | > 100 | > 100 | 8 | 8 | 6.6 | > 100 |

Further lines, with some results ahead:

| Ki [2] [nM] | Ki [3] [nM] | Ki ratio [9] | Structure (SMILES) | ED50 (Mus musculus [1]) [mg/kg] | ED50 (Mus musculus [4]) [mg/kg] | ED50 (Mus musculus [5]) [mg/kg] | ED50 (Mus musculus [6]) [mg/kg] | ED50 (Mus musculus [7]) [mg/kg] | ED50 (Mus musculus [8]) [mg/kg] |
| --- | --- | --- | --- | --- | --- | --- | --- | --- | --- |
| 5.7 | 929 | 164 | O=C1OCCN1CC#CCn1ccnc1 | > 100 | > 100 | 2 | 3 | 3 | > 100 |
| 53 | 303 | 5.7 | Cc1c[n+](C)cn1CC#CCN1CCCC1=O.[I-] | 9.7 | > 100 | > 100 | > 100 | 30 | 25 |
| 1.68 | 11.6 | 6.9 | Cc1cncn1CC#CCN1C(=O)CCC1C (stereo unspecified) | 0.8 | 14.2 | > 100 | > 100 | > 100 | 1.4 |
| 18 | 151 | 8.4 | Cc1cncn1CC#CCN1CCOC1=O | 37 | > 100 | > 100 | > 100 | 30 | 80 |

— ChEMBL document CHEMBL1125599, “Cholinergic activity of acetylenic imidazoles and related compounds” (J Med Chem, 1991)
